Measured values reported in ChEMBL document CHEMBL1201862, “PubChem BioAssay data set” (2004).
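Growth conditions: 96-well plates. Treatment: test compound, 48 hours, 5 concentrations. Analysis: linear interpolation between bracketing concentrations; unreached endpoints set to highest concentration. At the GI50, growth is halved.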 Active and inactive are the calls of the source. Cut-off read from the data, not from the text of the source: active = GI50 up to about 1.1 µM and inactive = higher. Starred links: 1 amine or outer side, 2 acyl side, 3 side chain; linkers in the order of their positions; H or OH if unused. Non-standard residues stand in square brackets, D forms with d. Residues, ends and D or L forms follow the SMILES beside them. ξ: configuration not given here. X24 = O=C(C(CC(O)CO)O[*:1])[*:2]; Ile(3ξ) = CCC(C)[C@H](N)C(=O)O; NMeV = CN[C@H](C(=O)O)C(C)C; NMeA = CN[C@@H](C)C(=O)O; βAla = NCCC(=O)O

Experiments:
Assay in all cases: NCI anticancer screen, dose series, 48 h
786-0 = test system: 786-0
A549 = test system: A549
ACHN = test system: ACHN
COLO 205 = test system: COLO 205
EKVX = test system: EKVX
HCC 2998 = test system: HCC 2998
Hs-578T = test system: Hs-578T
M14 = test system: M14
MDA-MB-231 = test system: MDA-MB-231
MDA-MB-435 = test system: MDA-MB-435
MOLT-4 = test system: MOLT-4
NCI-H460 = test system: NCI-H460
OVCAR-4 = test system: OVCAR-4
PC-3 = test system: PC-3
SF-539 = test system: SF-539
SN12C = test system: SN12C
TK-10 = test system: TK-10
UACC-257 = test system: UACC-257
RXF 393 = test system: RXF 393

Compound	GI50 (786-0)	GI50 (A549)	GI50 (ACHN)	GI50 (COLO 205)	GI50 (EKVX)	GI50 (HCC 2998)	GI50 (Hs-578T)	GI50 (M14)	GI50 (MDA-MB-231)	GI50 (MDA-MB-435)	GI50 (MOLT-4)	GI50 (NCI-H460)	GI50 (OVCAR-4)	GI50 (PC-3)	GI50 (SF-539)	GI50 (SN12C)	GI50 (TK-10)	GI50 (UACC-257)	GI50 (RXF 393)
C/C(=N\NC(=S)N1CCN(C)CC1)c1nc2cccnc2[nH]1	> 100 µM (inactive)	> 100 µM (inactive)	> 100 µM (inactive)	> 100 µM (inactive)	> 100 µM (inactive)	> 100 µM (inactive)	> 100 µM (inactive)	> 100 µM (inactive)	> 100 µM (inactive)	> 100 µM (inactive)	> 100 µM (inactive)	> 100 µM (inactive)	> 100 µM (inactive)	> 100 µM (inactive)	> 100 µM (inactive)	> 100 µM (inactive)	54.7 µM (inactive)	> 100 µM (inactive)	
COc1ccc(-c2nc(SCC(=O)N/N=C/c3ccc(O)c(OC)c3)[nH]c2-c2ccc(OC)cc2)cc1	19.8 µM (inactive)	34.9 µM (inactive)	18.2 µM (inactive)	19.8 µM (inactive)	33.3 µM (inactive)	17.7 µM (inactive)		22.9 µM (inactive)	24.7 µM (inactive)	32.4 µM (inactive)		23.2 µM (inactive)	40.9 µM (inactive)	27.1 µM (inactive)	21.4 µM (inactive)	19.1 µM (inactive)	41 µM (inactive)	25.5 µM (inactive)	18.6 µM (inactive)
CN(CCc1ccccn1)C(=S)N/N=C(\c1ccccc1)c1ccccn1	0.0419 µM (active)	< 0.0404 µM (active)	< 0.01 µM (active)	< 0.01 µM (active)	< 0.01 µM (active)	1.52 µM (inactive)	1.91 µM (inactive)	< 0.0394 µM (active)		0.573 µM (active)	< 0.01 µM (active)	< 0.01 µM (active)	0.0334 µM (active)	< 0.01 µM (active)		< 0.01 µM (active)	0.524 µM (active)	< 0.01 µM (active)	1.09 µM (active)
O=C(O)c1c2c(cc3c(=O)cc(-c4ccccc4)oc13)CCCC2	> 100 µM (inactive)	> 100 µM (inactive)	> 100 µM (inactive)	> 100 µM (inactive)	> 100 µM (inactive)	> 100 µM (inactive)		> 100 µM (inactive)			> 100 µM (inactive)	> 100 µM (inactive)	> 100 µM (inactive)		> 100 µM (inactive)	> 100 µM (inactive)	> 100 µM (inactive)	> 100 µM (inactive)	
COc1cc2c(cc1OS(C)(=O)=O)N=C[C@@H]1CCCN1C2=O	> 100 µM (inactive)	> 100 µM (inactive)	> 100 µM (inactive)	> 100 µM (inactive)	> 100 µM (inactive)	> 100 µM (inactive)	> 100 µM (inactive)	> 100 µM (inactive)	> 100 µM (inactive)	> 100 µM (inactive)	> 100 µM (inactive)	> 100 µM (inactive)	> 100 µM (inactive)		> 100 µM (inactive)	> 100 µM (inactive)	> 100 µM (inactive)	> 100 µM (inactive)	> 100 µM (inactive)
CC(=O)Nc1ccc(Nc2nc(=O)[nH]c(=O)[nH]2)cc1	> 100 µM (inactive)	> 100 µM (inactive)	> 100 µM (inactive)	> 100 µM (inactive)	> 100 µM (inactive)	> 100 µM (inactive)	> 100 µM (inactive)	> 100 µM (inactive)	> 100 µM (inactive)	> 100 µM (inactive)		> 100 µM (inactive)	> 100 µM (inactive)	> 100 µM (inactive)	> 100 µM (inactive)	> 100 µM (inactive)	> 100 µM (inactive)	> 100 µM (inactive)	
COc1ccc2c(c1)[n+]([O-])c(C(=O)C/C(=N\NC(=O)C[N+](C)(C)C)C(=O)Nc1cc(Cl)ccc1Cl)c(C)[n+]2[O-]	> 100 µM (inactive)	> 100 µM (inactive)	> 100 µM (inactive)	> 100 µM (inactive)	0.0891 µM (active)	> 100 µM (inactive)		> 100 µM (inactive)			> 100 µM (inactive)	> 100 µM (inactive)	> 100 µM (inactive)		> 100 µM (inactive)	> 100 µM (inactive)	> 100 µM (inactive)	> 100 µM (inactive)	> 100 µM (inactive)
CSc1ncnc2c1cnn2Cc1cnnn1COCC(O)CO (stereo unspecified)	> 100 µM (inactive)	> 100 µM (inactive)	> 100 µM (inactive)	> 100 µM (inactive)	> 100 µM (inactive)	> 100 µM (inactive)		> 100 µM (inactive)	> 100 µM (inactive)	> 100 µM (inactive)	> 100 µM (inactive)		> 100 µM (inactive)	> 100 µM (inactive)	> 100 µM (inactive)	> 100 µM (inactive)	> 100 µM (inactive)	> 100 µM (inactive)	
CS(=O)(=O)c1nc(-c2cc3c(c(S(C)(=O)=O)n2)CCCC3)cc2c1CCCCC2	> 100 µM (inactive)	> 100 µM (inactive)	> 100 µM (inactive)	> 100 µM (inactive)	> 100 µM (inactive)			> 100 µM (inactive)	65.5 µM (inactive)	> 100 µM (inactive)			> 100 µM (inactive)	> 100 µM (inactive)		> 100 µM (inactive)	> 100 µM (inactive)	> 100 µM (inactive)	48.6 µM (inactive)
CCOC(=O)c1ccc(NCc2ccc3nc(OC)c(OC)nc3c2)cc1	94.8 µM (inactive)	> 100 µM (inactive)	> 100 µM (inactive)	> 100 µM (inactive)	> 100 µM (inactive)	> 100 µM (inactive)		> 100 µM (inactive)	72.6 µM (inactive)	> 100 µM (inactive)	> 100 µM (inactive)	> 100 µM (inactive)	88.7 µM (inactive)	> 100 µM (inactive)	> 100 µM (inactive)	> 100 µM (inactive)		> 100 µM (inactive)	
CN1C(=O)C(O)C[C@@H]1c1ccc(F)cc1 (stereo partly specified)	> 100 µM (inactive)	> 100 µM (inactive)	> 100 µM (inactive)	> 100 µM (inactive)	> 100 µM (inactive)	> 100 µM (inactive)		> 100 µM (inactive)	> 100 µM (inactive)	> 100 µM (inactive)	> 100 µM (inactive)		> 100 µM (inactive)	> 100 µM (inactive)	> 100 µM (inactive)	> 100 µM (inactive)	> 100 µM (inactive)	> 100 µM (inactive)	> 100 µM (inactive)
CCC(C)[C@@H]1NC(=O)[C@@H]2CCCN2C(=O)C(CC(O)CO)OC(=O)CCNC(=O)[C@H](C)N(C)C(=O)[C@H](C(C)C)N(C)C1=O (stereo partly specified) (cyclo([Ile(3ξ)][NMeV][NMeA][βAla][X24]P))	> 100 µM (inactive)	> 100 µM (inactive)		> 100 µM (inactive)				> 100 µM (inactive)			43.1 µM (inactive)	> 100 µM (inactive)	> 100 µM (inactive)		> 100 µM (inactive)	> 100 µM (inactive)	> 100 µM (inactive)	> 100 µM (inactive)	> 100 µM (inactive)
